Patent US11457626B2, “Method for impairing a Cassie-Baxter state” (priority 2016, dated 2022)

Tests used:
[1] = cited from earlier work
[2] = acidity relative to oxalic acid; format: physicochemical
Excerpt: Further, their respective salts, sodium dipicolinate and monosodium phosphate both have essentially neutral pHs and both are known, powerful natural coordination complex chelators that prefer calcium over sodium in all but basic pH environments. […] This calcium coordination effect is why acidic anions dipicolinic acid and phosphoric acid, as well as their respective salts, are commonly used detergent ingredients (European Patent No. EP 0358472 A2, Detergent Compositions). In addition, phosphates (the phosphoric acid salts) are so safe and non-toxic that they are used as food additives and as emulsifiers.

[3] = system: PLA2; conditions: anti-inflammatory; cited from earlier work
[4] = solubility / dispersibility of dipicolinic acid in vehicles; format: physicochemical
Excerpt: As natural emulsifiers, the use of phosphates also greatly expands the possible range of usable solution/suspensions available for the present invention to concomitantly include, along with these phosphates, other arthropod plastron chemical degraders, such as carboxylic, dipicolinic, oxalic acids and their respective salts, as well as terpenes and low molecular weight non-polar alkanes, including cyclic alkanes. Dipicolinic acid is also dually beneficially to this plastron degrading effect because it is also a potent anti-inflammatory PLA2 inhibitor and thus would help reduce the concomitant skin inflammation associated with demodex infestations (U.S. Pat. No. 6,127,393, Antiproliferative, antiinfective, antiinflammatory, autologous immunization agent and method). […] However, the inventor has discovered that dipicolinic acid is soluble in glycerin, a common skin product ingredient, and is colloidal in low molecular weight non-polar solutions and in hyaluronic acid (a very high molecular weight […] common to the eye).

[5] = system: demodex mites; conditions: mineral oil as control and solvent; cited from earlier work

Structure (SMILES)	solubility in water [1]	times less acidic than oxalic acid [2]	PLA2 inhibition [3]	solubility in glycerin ([4]; glycerin)	state in hyaluronic acid ([4]; hyaluronic acid)	state in low molecular weight non-polar solutions ([4]; low molecular weight non-polar solutions)	activity against demodex mites among tea tree oil ingredients [5]
O=C(O)c1cccc(C(=O)O)n1 [dipicolinic acid]	limited solubility	about 10 times	potent	soluble	colloidal	colloidal	–
O=P(O)(O)O [phosphoric acid]	–	about 10 times	–	–	–	–	–
CC1=CCC(O)(C(C)C)CC1 (centres unmarked) [terpinen-4-ol]	–	–	–	–	–	–	most active ingredient
